Experimental data as given in ChEMBL document CHEMBL3994622, “Design and synthesis of new RAF kinase-inhibiting antiproliferative quinoline derivatives. Part 2: Diarylurea derivatives” (Eur J Med Chem, 2017).

Experiments:
Type in all cases: functional
[1] = tested on: SF-268; assay: Growth inhibition of human SF268 cells assessed as cell growth at 0.01 uM incubated for 48 hrs by sulforhodamine B assay relative to control; conditions: SF-268, 48 h, read-out: Activity
[2] = tested on: M14; assay: Growth inhibition of human M14 cells assessed as cell growth at 0.01 uM incubated for 48 hrs by sulforhodamine B assay relative to control; conditions: M14, 48 h, read-out: Activity
[3] = tested on: K562; assay: Growth inhibition of human K562 cells assessed as cell growth at 0.1 uM incubated for 48 hrs by sulforhodamine B assay relative to control; conditions: K562, 48 h, read-out: Activity
[4] = tested on: SK-MEL-2; assay: Growth inhibition of human SK-MEL-2 cells assessed as cell growth at 1 uM incubated for 48 hrs by sulforhodamine B assay relative to control; conditions: SK-MEL-2, 48 h, read-out: Activity
[5] = tested on: UACC-62; assay: Growth inhibition of human UACC62 cells assessed as cell growth at 10 uM incubated for 48 hrs by sulforhodamine B assay relative to control; conditions: UACC-62, 48 h, read-out: Activity
[6] = tested on: EKVX; assay: Growth inhibition of human EKVX cells assessed as cell growth at 100 uM incubated for 48 hrs by sulforhodamine B assay relative to control; conditions: read-out: Activity
[7] = tested on: CAKI-1; assay: Growth inhibition of human Caki1 cells assessed as cell growth at 0.01 uM incubated for 48 hrs by sulforhodamine B assay relative to control; conditions: CAKI-1, 48 h, read-out: Activity
[8] = tested on: LOX IMVI; assay: Growth inhibition of human LOXIMVI cells assessed as cell growth at 100 uM incubated for 48 hrs by sulforhodamine B assay relative to control; conditions: read-out: Activity
[9] = tested on: NCI-H226; assay: Growth inhibition of human NCI-H226 cells assessed as cell growth at 100 uM incubated for 48 hrs by sulforhodamine B assay relative to control; conditions: NCI-H226, 48 h, read-out: Activity
[10] = tested on: NCI-H460; assay: Growth inhibition of human NCI-H460 cells assessed as cell growth at 0.1 uM incubated for 48 hrs by sulforhodamine B assay relative to control; conditions: NCI-H460, 48 h, read-out: Activity
[11] = tested on: SNB-75; assay: Growth inhibition of human SNB75 cells assessed as cell growth at 0.1 uM incubated for 48 hrs by sulforhodamine B assay relative to control; conditions: SNB-75, 48 h, read-out: Activity
[12] = tested on: OVCAR-8; assay: Growth inhibition of human OVCAR8 cells assessed as cell growth at 10 uM incubated for 48 hrs by sulforhodamine B assay relative to control; conditions: OVCAR-8, 48 h, read-out: Activity
[13] = tested on: NCI-H522; assay: Growth inhibition of human NCI-H522 cells assessed as cell growth at 10 uM incubated for 48 hrs by sulforhodamine B assay relative to control; conditions: NCI-H522, 48 h, read-out: Activity
[14] = tested on: HOP-92; assay: Growth inhibition of human HOP92 cells assessed as cell growth at 10 uM incubated for 48 hrs by sulforhodamine B assay relative to control; conditions: HOP-92, 48 h, read-out: Activity
[15] = tested on: NCI-H522; assay: Growth inhibition of human NCI-H522 cells assessed as cell growth at 100 uM incubated for 48 hrs by sulforhodamine B assay relative to control; conditions: NCI-H522, 48 h, read-out: Activity
[16] = tested on: SK-MEL-28; assay: Growth inhibition of human SK-MEL-28 cells assessed as cell growth at 10 uM incubated for 48 hrs by sulforhodamine B assay relative to control; conditions: SK-MEL-28, 48 h, read-out: Activity
[17] = tested on: SK-OV-3; assay: Growth inhibition of human SKOV3 cells assessed as cell growth at 100 uM incubated for 48 hrs by sulforhodamine B assay relative to control; conditions: SK-OV-3, 48 h, read-out: Activity
[18] = tested on: NCI-H322M; assay: Growth inhibition of human NCI-H322M cells assessed as cell growth at 0.1 uM incubated for 48 hrs by sulforhodamine B assay relative to control; conditions: read-out: Activity
[19] = tested on: RPMI-8226; assay: Growth inhibition of human RPMI8226 cells assessed as cell growth at 30 uM incubated for 48 hrs by sulforhodamine B assay relative to control; conditions: RPMI-8226, 48 h, read-out: Activity
[20] = tested on: BT-549; assay: Growth inhibition of human BT549 cells assessed as cell growth at 3 uM incubated for 48 hrs by sulforhodamine B assay relative to control; conditions: BT-549, 48 h, read-out: Activity
[21] = tested on: DU-145; assay: Growth inhibition of human DU145 cells assessed as cell growth at 30 uM incubated for 48 hrs by sulforhodamine B assay relative to control; conditions: DU-145, 48 h, read-out: Activity
[22] = tested on: K562; assay: Growth inhibition of human K562 cells assessed as cell growth at 0.003 uM incubated for 48 hrs by sulforhodamine B assay relative to control; conditions: K562, 48 h, read-out: Activity
[23] = tested on: HT-29; assay: Growth inhibition of human HT-29 cells assessed as cell growth at 0.3 uM incubated for 48 hrs by sulforhodamine B assay relative to control; conditions: HT-29, 48 h, read-out: Activity
[24] = tested on: HCC 2998; assay: Growth inhibition of human HCC2998 cells assessed as cell growth at 0.003 uM incubated for 48 hrs by sulforhodamine B assay relative to control; conditions: HCC 2998, 48 h, read-out: Activity
[25] = tested on: SK-OV-3; assay: Growth inhibition of human SKOV3 cells assessed as cell growth at 0.03 uM incubated for 48 hrs by sulforhodamine B assay relative to control; conditions: SK-OV-3, 48 h, read-out: Activity
[26] = tested on: SF-268; assay: Growth inhibition of human SF268 cells assessed as cell growth at 30 uM incubated for 48 hrs by sulforhodamine B assay relative to control; conditions: SF-268, 48 h, read-out: Activity
[27] = tested on: Hs-578T; assay: Growth inhibition of human Hs 578T cells assessed as cell growth at 0.3 uM incubated for 48 hrs by sulforhodamine B assay relative to control; conditions: read-out: Activity
[28] = tested on: RXF 393; assay: Growth inhibition of human RXF393 cells assessed as cell growth at 0.3 uM incubated for 48 hrs by sulforhodamine B assay relative to control; conditions: RXF 393, 48 h, read-out: Activity
[29] = tested on: BT-549; assay: Growth inhibition of human BT549 cells assessed as cell growth at 0.03 uM incubated for 48 hrs by sulforhodamine B assay relative to control; conditions: BT-549, 48 h, read-out: Activity
[30] = tested on: HCT-15; assay: Growth inhibition of human HCT15 cells assessed as cell growth at 0.003 uM incubated for 48 hrs by sulforhodamine B assay relative to control; conditions: HCT-15, 48 h, read-out: Activity
[31] = tested on: SK-MEL-5; assay: Growth inhibition of human SK-MEL-5 cells assessed as cell growth at 0.3 uM incubated for 48 hrs by sulforhodamine B assay relative to control; conditions: SK-MEL-5, 48 h, read-out: Activity
[32] = tested on: HCC 2998; assay: Growth inhibition of human HCC2998 cells assessed as cell growth at 3 uM incubated for 48 hrs by sulforhodamine B assay relative to control; conditions: HCC 2998, 48 h, read-out: Activity
[33] = tested on: SF-268; assay: Growth inhibition of human SF268 cells assessed as cell growth at 0.03 uM incubated for 48 hrs by sulforhodamine B assay relative to control; conditions: SF-268, 48 h, read-out: Activity
[34] = tested on: A549; assay: Growth inhibition of human A549/ATCC cells assessed as cell growth at 0.3 uM incubated for 48 hrs by sulforhodamine B assay relative to control; conditions: A549, 48 h, read-out: Activity

Structure (SMILES) | growth at 0.01 µM [1] [%] | growth at 0.01 µM [2] [%] | growth at 0.1 µM [3] [%] | growth at 1 µM [4] [%] | growth at 10 µM [5] [%] | growth at 100 µM [6] [%] | growth at 0.01 µM [7] [%] | growth at 100 µM [8] [%] | growth at 100 µM [9] [%] | growth at 0.1 µM [10] [%] | growth at 0.1 µM [11] [%] | growth at 10 µM [12] [%] | growth at 10 µM [13] [%] | growth at 10 µM [14] [%] | growth at 100 µM [15] [%] | growth at 10 µM [16] [%] | growth at 100 µM [17] [%] | growth at 0.1 µM [18] [%] | growth at 30 µM [19] [%] | growth at 3 µM [20] [%] | further results
COc1cc2cc(Oc3ccc(NC(=O)Nc4ccc(Cl)c(Cl)c4)cc3)c(C)nc2cc1OC | 103 | 84 | 107 | 121 | 25 | -36 | 88 | -100 | -85 | 103 | 75 | 13 | -5 | -41 | -63 | 16 | -57 | 103 |  |  | 
COc1cc2cc(Oc3ccc(NC(=O)Nc4cc(C(F)(F)F)cc(C(F)(F)F)c4)cc3)c(C)nc2cc1OC | 97 | 92 | 108 | 85 | -74 | -94 | 88 | -90 | -52 | 107 | 74 | -46 | -71 | -38 | -79 | -61 | -89 | 90 |  |  | 
COc1cc2cc(Oc3ccc(NC(=O)Nc4ccc(Cl)c(C(F)(F)F)c4)cc3)c(C)nc2cc1OC |  |  |  |  |  |  |  |  |  |  |  |  |  |  |  |  |  |  | -47 | 12 | growth at 30 µM [21]: -70%; growth at 0.003 µM [22]: 95%; growth at 0.3 µM [23]: 105%; growth at 0.003 µM [24]: 102%; growth at 0.03 µM [25]: 100%; growth at 30 µM [26]: -64%; growth at 0.3 µM [27]: 84%; growth at 0.3 µM [28]: 113%; growth at 0.03 µM [29]: 83%; growth at 0.003 µM [30]: 95%; growth at 0.3 µM [31]: 94%; growth at 3 µM [32]: 29%; growth at 0.03 µM [33]: 91%; growth at 0.3 µM [34]: 89%
Cc1nc2cc(O)c(O)cc2cc1Oc1ccc(NC(=O)Nc2ccc(Cl)c(Cl)c2)cc1 |  |  |  |  |  |  |  |  |  |  |  |  |  |  |  |  |  |  | -22 | 78 | growth at 30 µM [21]: -10%; growth at 0.003 µM [22]: 122%; growth at 0.3 µM [23]: 103%; growth at 0.003 µM [24]: 99%; growth at 0.03 µM [25]: 102%; growth at 30 µM [26]: 1%; growth at 0.3 µM [27]: 91%; growth at 0.3 µM [28]: 103%; growth at 0.03 µM [29]: 94%; growth at 0.003 µM [30]: 100%; growth at 0.3 µM [31]: 97%; growth at 3 µM [32]: 96%; growth at 0.03 µM [33]: 104%; growth at 0.3 µM [34]: 96%
